{"source": "patent US9554576B2", "about": "“Tetrazolinone compounds and their use as pesticides” (SUMITOMO CHEMICAL COMPANY, LIMITED, priority 2012, dated 2017)", "tested_on": "wheat rust fungi (Puccinia recondita)", "assay": "Comparative Test Example: wheat rust foliar spray test", "assay_type": "in vivo", "details": "wheat (cv; Shirogane), 500 ppm foliar spray, inoculated after 5 days", "description": "The spores of wheat rust fungi (Puccinia recondita) were sprinkling-inoculated. After inoculation, the plants were placed under a dark and humid condition at 23° C. for 1 day and were then cultivated at 20° C. under lighting for 8 days and a lesion area was observed.", "data": [{"smiles": "Cc1cc(C)n(-c2ccc(OCc3ccccc3-n3nnn(C)c3=O)c(Cl)c2)n1", "note": "[control compound, 1-{2-[2-chloro-4-(3,5-dimethyl-pyrazol-1-yl)-phenoxymethyl]-phenyl}-4-methyl-1,4-dihydrotetrazole-5-one]", "values": [{"measurement": "lesion area compared to the lesion area in untreated plants", "value": "≥ 70", "unit": "%"}]}]}
